Source: patent US11958868B2, “Methods of using metal complexes to promote wound healing” (University of Macau, priority 2022, dated 2024)

Legend:
[1] = ICP-MS analysis of iridium in skin samples; type: in vivo; settings: dosed STZ and HFD/STZ mice
[2] = tested on: full-thickness skin wounds in leptin-receptor deficient (db/db) diabetic mice; settings: 0.25 mg/mL topical every other day
Procedure: (§1) The db/db and age-matched wide-type (WT) mice were locally administered with vehicle (0.8% w/v Carbopol 974P NF in distilled water, pH 7.0) and 0.25 mg/mL complex 1a (mixed in 0.8% w/v Carbopol 974P NF in distilled water) every other day for 8 days, respectively (FIG. 4a). […] STZ mice were obtained by a single injection of high-dose streptozotocin (150 mg/kg) (Supplementary FIG. 10a). HFD/STZ mice were generated by 8 weeks high-fat diet feeding, followed by low-dose streptozotocin injection for 7 days (40 mg/kg/day) (Supplementary FIG. 11a). 3 days after streptozotocin injection, STZ or HFD/STZ mice with fasting blood glucose levels between 15 and 28 mmol/L were considered as diabetic mice and used in wound healing experiments. STZ and HFD/STZ mice were intraperitoneally injected with either vehicle (PEG 400: distilled water=6:4, v/v) or 1.25 mg/kg complex 1a every other day for 8 days, respectively.
(§2) In the wound healing experiment, two full-thickness skin lesions were excised in interscapular area of each mouse, and the wound area was monitored every other day.
(§3) Male db/db mice were purchased from the Model Animal Research Center of Nanjing University (Nanjing, China). Male C57BL/6J mice were purchased from the animal facility of Faculty of Health Sciences, University of Macau.

[3] = tested on: full-thickness skin wounds in high-fat diet-fed, streptozotocin-treated diabetic mice (HFD/STZ); settings: 1.25 mg/kg i.p. every other day
Procedure: as §1, §2, §3

[4] = tested on: HIF-2a; assay: Effect on HIF-2a level and activity; type: cell-based
[5] = tested on: full-thickness skin wounds in WT/NC mice; assay: Skin wound model in normal (WT/NC) mice; type: in vivo
Description: (§4) The mice were maintained for 3 days. […] All experiments complied with all relevant ethical regulations.
(§5) Mice were anesthetized by inhalation of 3% isoflurane.

[6] = biological target: T1, VHL-HIF-1α interaction (Homo sapiens, UniProt P40337); assay: Co-immunoprecipitation of hydroxy-HIF-1α with VHL in HEK293 cells; type: cell-based; settings: HEK293 cells, 0.3, 1, 3, 6 and 9 μM for 2 h
T1 construct: endogenous in cells; host or cells: HEK293
T1 sequence (P40337 whole entry): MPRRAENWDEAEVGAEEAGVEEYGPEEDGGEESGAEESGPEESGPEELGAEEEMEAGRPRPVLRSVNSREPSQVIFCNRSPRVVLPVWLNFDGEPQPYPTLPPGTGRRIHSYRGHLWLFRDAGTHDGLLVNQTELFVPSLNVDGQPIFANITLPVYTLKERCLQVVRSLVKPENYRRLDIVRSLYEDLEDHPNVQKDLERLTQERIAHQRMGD
T1 sequence (Q15370 whole entry partner): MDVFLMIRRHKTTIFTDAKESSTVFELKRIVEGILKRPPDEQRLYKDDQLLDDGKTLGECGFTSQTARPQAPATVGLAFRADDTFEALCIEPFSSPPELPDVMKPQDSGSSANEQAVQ
T1 sequence (Q15369 whole entry partner): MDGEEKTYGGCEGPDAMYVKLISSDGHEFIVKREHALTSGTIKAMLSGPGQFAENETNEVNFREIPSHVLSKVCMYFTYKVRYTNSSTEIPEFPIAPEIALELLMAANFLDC
Procedure: HEK293 cells were treated with vehicle DMSO (1% for 2 h), 1a (0.3, 1, 3, 6 and 9 μM for 2 h), VH298 (100 μM for 2 h), MG132 (20 μM for 3 h), or FG-4592 (100 μM for 2 h) before lysis. Cell lysates were collected and incubated with VHL antibody overnight at 4° C. The proteins were immunoprecipitated using agarose beads. The levels of hydroxy-HIF-1α co-precipitated with VHL were detected using a hydroxy-HIF-1α antibody, and then visualized using ECL Western Blotting Detection Reagent (GE Healthcare). (B) Cellular thermal shift assays to monitor cellular target engagement of VHL and HIF-1α. HEK293 cell lysates were treated with 1a (3 μM) at room temperature for 30 min and then heated at different temperature ranging from 48° C. to 68° C. for 5 min. The protein samples were collected and detected by Western blotting using either VHL or PHD2 antibodies. (C) Fluorescence-based protein thermal shift assay of VBC in the presence or absence of VH298 (100 μM) and complex 1a (100 μM). (D) ITC titration of complex 1a (300 μM) into recombinant VHL protein (30 μM). ITC experiments were carried in a MicroCal PEAQ-ITC Isothermal Titration Calorimeter (Malvern Panalytical). […] Data are expressed as means±SD (n=3 independent experiments for figures a and b, samples for figures c and e), P values were calculated using a two-sided t-test. *P<0.05, **P<0.01 vs. DMSO group. […]

[7] = biological target: T2, human recombinant VHL:ElonginB:ElonginC (VBC) complex (Homo sapiens, UniProt P40337); assay: Circular dichroism of VBC complex; type: binding; settings: 3 μM in 1% DMSO
T2 construct: made in house
T2 sequence (P40337 whole entry): as the sequence (P40337 whole entry) above
T2 sequence (Q15370 whole entry partner): as the sequence (Q15370 whole entry partner) above
T2 sequence (Q15369 whole entry partner): as the sequence (Q15369 whole entry partner) above

[8] = tested on: full-thickness skin wounds in streptozotocin-induced diabetic mice (STZ); assay: Skin wound model in STZ diabetic mice, intraperitoneal; type: in vivo; settings: 1.25 mg/kg i.p. every other day
Description: as §4, §5

[9] = biological target: T3, PHD2 (Homo sapiens, UniProt Q9GZT9); assay: Cellular thermal shift assay (CETSA) in HEK293 cell lysates, PHD2; type: binding; settings: 3 μM
T3 construct: detected by Western blotting using either VHL or PHD2 antibodies; endogenous in cells; host or cells: HEK293 cell lysate
T3 sequence (Q9GZT9 whole entry): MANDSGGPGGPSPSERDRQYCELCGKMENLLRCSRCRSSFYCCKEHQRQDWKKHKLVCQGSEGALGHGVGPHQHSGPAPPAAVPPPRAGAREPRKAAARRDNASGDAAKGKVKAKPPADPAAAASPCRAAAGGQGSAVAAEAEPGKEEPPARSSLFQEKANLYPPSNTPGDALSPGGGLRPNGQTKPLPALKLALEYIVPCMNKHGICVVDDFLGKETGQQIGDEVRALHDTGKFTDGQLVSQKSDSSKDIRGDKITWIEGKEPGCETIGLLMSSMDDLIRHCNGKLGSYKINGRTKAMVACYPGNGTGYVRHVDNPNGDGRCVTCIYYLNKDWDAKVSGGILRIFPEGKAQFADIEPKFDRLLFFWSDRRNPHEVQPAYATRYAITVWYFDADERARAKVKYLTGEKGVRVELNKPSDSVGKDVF
Procedure: HEK293 cells were treated with vehicle DMSO (1% for 2 h), 1a (0.3, 1, 3, 6 and 9 μM for 2 h), VH298 (100 μM for 2 h), MG132 (20 μM for 3 h), or FG-4592 (100 μM for 2 h) before lysis. Cell lysates were collected and incubated with VHL antibody overnight at 4° C. The proteins were immunoprecipitated using agarose beads. The levels of hydroxy-HIF-1α co-precipitated with VHL were detected using a hydroxy-HIF-1α antibody, and then visualized using ECL Western Blotting Detection Reagent (GE Healthcare). (B) Cellular thermal shift assays to monitor cellular target engagement of VHL and HIF-1α. HEK293 cell lysates were treated with 1a (3 μM) at room temperature for 30 min and then heated at different temperature ranging from 48° C. to 68° C. for 5 min. The protein samples were collected and detected by Western blotting using either VHL or PHD2 antibodies. (C) Fluorescence-based protein thermal shift assay of VBC in the presence or absence of VH298 (100 μM) and complex 1a (100 μM). […] Data are expressed as means±SD (n=3 independent experiments for figures a and b, samples for figures c and e), P values were calculated using a two-sided t-test. *P<0.05, **P<0.01 vs. DMSO group.
After incubating HEK293 cell lysates with complex 1a followed by heating to set temperatures, VHL and PHD2 levels in the soluble fraction were quantitated by Western blotting. […]

COc1cc[n+]2c3c1ccc1c(OC)cc[n+](c13)[Ir-3]213([c]2ccccc2-c2cccc[n+]21)[c]1ccccc1-c1cccc[n+]13.F[P-](F)(F)(F)(F)F [1a]
Iridium in skin samples (ICP-MS) [1]: confirmed the presence of iridium in skin samples | Rate of wound closure, db/db mice, 4 days ([2]; 4 days post-injury): about 28% | Rate of wound closure, db/db mice, 8 days ([2]; 8 days post-injury): ~40% | Rate of wound closure, HFD/STZ mice, 4 days ([3]; 4 days post-injury): 62% | Rate of wound closure, HFD/STZ mice, 8 days ([3]; 8 days post-injury): 82% | Level and activity of HIF-2a [4]: no effect on the level and activity of HIF-2a | Rate of wound closure, NC mice, 4 days ([5]; NC, 1.25 mg/kg i.p., 4 days): ~65% | Rate of wound closure, WT mice, 4 days ([5]; WT, 0.25 mg/mL topical, 4 days): about 64% | Wound closure, WT/NC mice, 8 days ([5]; WT/NC, 8 days): almost complete wound closure | Amount of HIF-1α-OH co-precipitating with VHL [6]: reduced the amount of HIF-1α-OH co-precipitating with VHL in a dose-dependent manner | Circular dichroism signal of VBC complex [7]: distinct shift of the signal | Rate of wound closure, STZ mice, 4 days ([8]; 4 days post-injury): 50% | Rate of wound closure, STZ mice, 8 days ([8]; 8 days post-injury): 76% | Thermal stabilization of PHD2 (CETSA) [9]: no appreciable effect on the thermal stabilization of PHD2
